According to patent publication US20140315975A1, “APOPTOSIS-INDUCING AGENT” (NITTO DENKO CORPORATION, priority 2011, published 2014):
Residues, ends and D or L forms follow the SMILES beside them. *: point of attachment. Cbz = O=C(OCc1ccccc1)*

Tests used:
Assay type in all cases: cell-based
GST-π = assay: Western blot analysis of GST-π knockdown; conditions: M7609 cells, siRNA transfection, western blot (FIG. 1a)
Description: On the day before transfection, M7609 cells were plated on a 100 mm plastic tissue culture dish using 10% FBS-containing RPMI-1640 medium containing no antibiotic so as to give 1×10^6 cells/10 mL. 600 pmol of GST-π siRNA (SEQ ID No: 1: […], siRNA ID#2385, Ambion) was added to 1 mL of Opti-MEM I Reduced Serum Medium (GIBCO) and mixed gently. Subsequently, 35 μL of Lipofectamine RNAiMAX (Invitrogen) was diluted in 1 mL of Opti-MEM I Reduced Serum Medium and mixed gently. The diluted GST-π siRNA and the diluted Lipofectamine RNAiMAX were combined and gently mixed, and then incubated at room temperature for 10 min. During this time, the medium was replaced with 10 mL of Opti-MEM I Reduced Serum Medium. After the 10 min. incubation, the complex between GST-π siRNA and Lipofectamine RNAiMAX was added to the cells and incubated at 37° C. under an atmosphere containing 5% CO2. After 5 hours incubation, it was replaced with 10 mL of 10% FBS-containing RPMI-1640 medium containing no antibiotic. […] On the 1st, 2nd, 3rd, and 4th days after transfection with GST-π siRNA, the number of cells was counted, and knockdown of GST-π was examined. Knockdown of GST-π was analyzed by a western blot method as described below.
Western blot analysis of GST-π knockdown was carried out using cells harvested at above-mentioned each point of time after transfection with GST-π siRNA. […] The cell extract thus obtained was subjected to quantitative protein analysis using a Micro BCA Protein Assay Kit (Thermo SCIENTIFIC) (GST-π siRNA transfectant: 4.35 μg/μL, Scramble siRNA transfectant: 4.56 μg/μL). […] A reaction with a chemiluminescent substrate was then carried out at room temperature for 1 min., and then this chemiluminescence was detected using an X-ray film. Washing between operations was carried out three times by shaking for 5 min using PBS-T. Furthermore, after transfection with siRNA, plating on a 60 mm plastic tissue culture dish was carried out to give 1.0×10^5 cells/5 mL, and the total cell count in the dish was measured using a hemocytometer up to the 4th day.

LC3 = assay: Autophagy induction by LC3 western blotting; conditions: M7609 cells, western blot with anti-LC3 antibody (FIG. 8)
Description: Induction of autophagy in GST-π knockdown cells was further analyzed by a western blot analysis of LC3. GST-π knockdown cells obtained by the procedure of Example 1 (2) were plated on a cover slip placed in a 35 mm plastic tissue culture dish so as to give 1×10^5 cells/2 mL. After incubating for a predetermined time, a cell extract was collected and subjected to a western blot analysis. A reaction with a transfer membrane was carried out at 4° C. for 16 hours using anti-LC3B antibody (SIGMA) as a primary antibody. Detection of LC3 molecules was carried out using a chemoluminescent reagent after a reaction with HRP-labeled secondary antibody. Whether or not autophagy was induced was evaluated by a shift of LC3 from type I (18 kDa) to type II (16 kDa).

M7609 cells [1] = assay: Autophagy-positive cells in GST-π knockdown cells with autophagy inhibitor (LC3 immunofluorescence); conditions: GST-π KD M7609 cells + 3-MA (FIG. 16)
Description: (§1) Transfection of GST-π siRNA was carried out in accordance with the procedure of Example 1 (2), the medium was then replaced with an antibiotic-free medium, and incubation was carried out for 3 hours. Cells were plated on a cover slip placed in a 35 mm plastic tissue culture dish, the autophagy inhibitor 3-methyl adenine (3-MA, SIGMA) was added so as to give 1 or 5 mM, and following this culturing was carried out for a predetermined time.
The cells cultured in (1) were subjected to immunofluorescence staining using anti-LC3 antibody in the same way as for Example 3 (1).

M7609 cells [2] = assay: TUNEL staining of GST-π knockdown cells with autophagy inhibitor; conditions: GST-π siRNA + 1 mM or 5 mM 3-MA
Description: as §1
The cells cultured in (1) were subjected to TUNEL staining in the same way as for Example 3 (4).

p-EGFR (Tyr1068) = assay: Effect of proteasome inhibitor on p-EGFR expression under GST-π knockdown; conditions: GST-π KD cells, 5 μM MG132 for 2 hours (FIG. 12)
Description: Culturing of M7609 cells and transfection with GST-π siRNA were carried out in accordance with the procedures of Example 1 (1) and (2). On the 2nd day after transfection with GST-π siRNA, the cells were cultured in serum-free medium for 16 hours. After treating with 5 μM MG132 for 2 hours, a cell extract was collected. As a control for the MG132 treatment, treatment with 0.05% DMSO was carried out in the same manner. The cell extract thus obtained was subjected to quantitative protein analysis using a Micro BCA Protein Assay Kit (Scramble siRNA-DMSO treated group: 11.98 μg/μL, Scramble siRNA-MG132 treated group: 12.29 μg/μL, GST-π siRNA-DMSO treated group: 8.91 μg/μL, GST-π siRNA-MG132 treated group: 9.24 μg/μL). After 80 μg of the cell extract was subjected to SDS-PAGE, a western blot analysis was carried out using anti-p-EGFR (Tyr1068) antibody and anti-EGFR antibody.

p-Raf-1 (Ser338) = assay: Effect of proteasome inhibitor on Raf-1 expression under GST-π knockdown; conditions: 5 μM MG132 for 4 hours versus DMSO (FIG. 4)
Description: Culturing of M7609 cells and transfection with GST-π siRNA were carried out in accordance with the procedures of Example 1 (1) and (2). On the 2nd day after GST-π siRNA transfection culturing was carried out for 16 hours in a serum-free medium. After treating with 5 μM MG132 for 4 hours, a cell extract was collected. As a control for the MG132 treatment, treatment with 0.05% DMSO was carried out in the same manner. The cell extract thus obtained was subjected to quantitative protein analysis using a Micro BCA Protein Assay Kit (Scramble siRNA-DMSO treated group: 3.36 μg/μL, Scramble siRNA-MG132 treated group: 3.16 μg/μL, GST-π siRNA-DMSO treated group: 3.12 μg/μL, GST-π siRNA-MG132 treated group: 3.16 μg/μL). 20 μg of the cell extract was subjected to SDS-PAGE, and then western blot analysis was carried out in the same way as for Example 1 (3) using an anti-p-Raf-1 (Ser338) antibody and an anti-Raf-1 antibody.

Scramble siRNA: control Scramble siRNA (SEQ ID No: 2: CGAUUCGCUAGACCGGCUUCAUUGCAG, Hokkaido System Science Co., Ltd.) (chemistry not given here) [reference compound]
expression of GST-π (GST-π): not suppressed | expression of type I and type II LC3 (LC3): low

Cn1cnc(N)c2ncnc1-2 [3-MA, 3-methyladenine]
autophagy increased by knockdown of GST-π (proportion of autophagy-positive cells) (M7609 cells [1]): suppressed | apoptosis-positive cells (TUNEL stained images) (M7609 cells [2]; 2nd to 4th day (FIG. 17 versus FIG. 9)): increased markedly | induction of apoptosis (percentage apoptosis over time) (M7609 cells [2]; dose-dependent (FIG. 18)): further induced

CC(C)C[C@@H](C=O)NC(=O)[C@H](CC(C)C)NC(=O)[C@H](CC(C)C)NC(=O)OCc1ccccc1 [MG132] (Cbz-Leu-Leu-Leu-aldehyde)
expression level of p-EGFR (p-EGFR (Tyr1068)): recovered | abundance of phosphorylated Raf protein (p-Raf-1 (S338)) (p-Raf-1 (Ser338); GST-π siRNA transfectant): increased | abundance of phosphorylated Raf protein (p-Raf-1 (S338)) (p-Raf-1 (Ser338); Scramble siRNA transfectant): no change
